How the values were obtained:
[1] = target: T1, PIKfyve (Mus musculus, UniProt Q9Z1T6); test: Pharmacological inhibition of macrophages, lysosomal Na^+ measured with RatiNa; format: cell-based, murine; settings: RAW 264.7 macrophages, 100 nM apilimod 1 h; native lysosomes ~48 mM
T1 construct: endogenous in cells; host or cells: RAW 264.7 macrophages
Protocol: 1 μM RatiNa in prewarmed Opti-MEM was added to RAW macrophage and incubated for 2 h for maximum RatiNa uptake. Cells were then washed 3 times with PBS and incubated in prewarmed complete DMEM medium for 30 min to allow lysosome targeting of RatiNa. RatiNa in cell was then imaged in confocal microscope or widefield microscope.
RAW macrophage was treated with 100 nM apilimod for 1 h to inhibit PIKfyve. RatiNa treatment was done as stated previously with 100 nM apilimod in all medium. Cell was then imaged in confocal microscope.

[2] = ssDNA-CG Na^+ sensitivity by fluorescence; format: physicochemical; settings: 1 mM and 150 mM NaCl, 100 nM ssDNA-CG, pH 7.4 potassium phosphate buffer
Protocol: FIGS. 12A-12B illustrate the validation of CG-DNA conjugate efficiency and Na^+ sensitivity. […] Molar ratio of DNA to CG is confirmed to be ˜ 1:1 confirming the coupling efficiency. […] 1 mM and 150 mM NaCl was added to 100 nM of ssDNA-CG in pH 7.4 potassium phosphate buffer. Fluorescence maximum at 545 increases more than 5-fold.
100 nM of RatiNa was aliquoted in UB buffer (10 mM HEPES, MES and potassium acetate, 140 mM NaCl/KCl). pH adjusted by HCl or KOH) Fluorescent emission spectra was taken by Fluoromax (Horiba) with the following collection parameters: For CG, dex=522 nm, range from 530 nm to 600 nm. For ATTO647N, dex=645 nm, range from 660 nm to 700 nm.

T1 sequence (Q9Z1T6 whole entry): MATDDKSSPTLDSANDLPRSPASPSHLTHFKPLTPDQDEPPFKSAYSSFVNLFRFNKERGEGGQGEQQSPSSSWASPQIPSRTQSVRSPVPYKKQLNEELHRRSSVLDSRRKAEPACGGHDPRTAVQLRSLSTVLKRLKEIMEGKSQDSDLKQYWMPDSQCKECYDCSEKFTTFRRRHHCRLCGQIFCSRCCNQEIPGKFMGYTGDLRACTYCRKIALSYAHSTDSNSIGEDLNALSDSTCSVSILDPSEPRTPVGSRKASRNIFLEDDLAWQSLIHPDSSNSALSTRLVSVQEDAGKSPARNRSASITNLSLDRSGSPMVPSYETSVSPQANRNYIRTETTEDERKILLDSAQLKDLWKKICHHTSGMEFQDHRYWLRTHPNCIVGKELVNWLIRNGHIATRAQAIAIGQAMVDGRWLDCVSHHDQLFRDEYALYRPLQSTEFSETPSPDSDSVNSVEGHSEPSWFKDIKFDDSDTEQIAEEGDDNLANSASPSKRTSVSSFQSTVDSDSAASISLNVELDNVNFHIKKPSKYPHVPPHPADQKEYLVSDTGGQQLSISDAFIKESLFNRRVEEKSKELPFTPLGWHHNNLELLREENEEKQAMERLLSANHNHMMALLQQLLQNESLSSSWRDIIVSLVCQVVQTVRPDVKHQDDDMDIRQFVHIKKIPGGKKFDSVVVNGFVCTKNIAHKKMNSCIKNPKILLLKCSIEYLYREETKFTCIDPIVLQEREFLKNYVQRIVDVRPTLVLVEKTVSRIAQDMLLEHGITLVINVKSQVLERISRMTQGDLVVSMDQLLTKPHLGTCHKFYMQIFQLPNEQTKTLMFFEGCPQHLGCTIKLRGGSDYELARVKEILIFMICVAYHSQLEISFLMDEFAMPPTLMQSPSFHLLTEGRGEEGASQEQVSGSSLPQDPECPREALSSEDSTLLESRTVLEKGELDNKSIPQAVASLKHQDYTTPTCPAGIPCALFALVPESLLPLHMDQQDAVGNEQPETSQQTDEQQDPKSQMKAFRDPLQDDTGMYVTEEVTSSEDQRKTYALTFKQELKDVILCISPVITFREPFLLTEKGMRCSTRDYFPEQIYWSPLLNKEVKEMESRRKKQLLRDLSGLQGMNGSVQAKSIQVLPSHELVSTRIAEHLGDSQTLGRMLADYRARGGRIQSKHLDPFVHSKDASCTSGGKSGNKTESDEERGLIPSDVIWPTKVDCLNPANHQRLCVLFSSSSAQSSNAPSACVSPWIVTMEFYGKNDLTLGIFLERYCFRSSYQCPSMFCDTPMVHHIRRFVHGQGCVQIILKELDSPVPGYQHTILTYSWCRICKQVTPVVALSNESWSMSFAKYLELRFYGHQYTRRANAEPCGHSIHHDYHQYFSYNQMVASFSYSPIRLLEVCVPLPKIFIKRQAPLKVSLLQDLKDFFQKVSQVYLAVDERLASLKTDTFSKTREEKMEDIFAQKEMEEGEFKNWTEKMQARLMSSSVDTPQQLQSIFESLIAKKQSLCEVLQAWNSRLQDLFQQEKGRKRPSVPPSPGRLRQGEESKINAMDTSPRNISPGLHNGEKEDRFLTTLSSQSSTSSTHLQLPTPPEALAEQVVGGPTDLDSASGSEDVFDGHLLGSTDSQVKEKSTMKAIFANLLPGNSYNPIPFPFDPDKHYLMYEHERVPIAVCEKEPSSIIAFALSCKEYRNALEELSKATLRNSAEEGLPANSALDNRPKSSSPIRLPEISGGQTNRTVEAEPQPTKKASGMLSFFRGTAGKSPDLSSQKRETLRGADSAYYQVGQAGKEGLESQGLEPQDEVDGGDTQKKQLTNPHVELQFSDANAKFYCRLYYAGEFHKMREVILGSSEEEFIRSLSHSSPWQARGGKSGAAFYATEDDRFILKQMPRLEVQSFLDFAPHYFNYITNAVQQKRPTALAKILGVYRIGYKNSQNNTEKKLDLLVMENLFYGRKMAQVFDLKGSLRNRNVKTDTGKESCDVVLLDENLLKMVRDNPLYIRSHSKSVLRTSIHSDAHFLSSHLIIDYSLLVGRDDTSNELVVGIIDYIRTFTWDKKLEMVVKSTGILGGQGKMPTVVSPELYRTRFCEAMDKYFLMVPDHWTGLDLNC

Compound | lysosomal Na^+ upon PIKfyve inhibition [1] | increase of fluorescence maximum at 545 [2]
Cc1cccc(/C=N/Nc2cc(N3CCOCC3)nc(OCCc3ccccn3)n2)c1 [apilimod] | ~70 mM | 
ssDNA-CG: 25mer ssDNA conjugated to CG dye by CuAAC coupling (CGATCAACACTGCATATATATACGACC; CG dye conjugated by CuAAC, chemistry not fully specified) |  | more than 5 fold

— patent US20240426847A1, “COMPOSITIONS AND METHODS FOR THE DETERMINATION OF SODIUM CONCENTRATION” (The University of Chicago, priority 2023, published 2024)
